SMILES strings stand for the structures. In brackets after ≈: the same amount, converted by molar mass.

Holding throughout (test): ≥ marks a high value that may be exact or a test limit, other limits are often not marked, values filed in µg/mL are converted to µM
Test [1] concerns Citrobacter freundii MTCC 1658.
The test system of test [2] is Salmonella enterica MTCC 9844.
For test [3], the system named is Proteus vulgaris MTCC 1771.
For test [4], the system named is Vibrio cholerae MTCC 3904.
For test [5], the system named is Staphylococcus haemolyticus MTCC 3383.
The test system of test [6] is Alkalihalobacillus alcalophilus MTCC 860.
Test [7] deals with Acinetobacter baumannii MTCC 9829.
For test [8], the system named is Bordetella bronchiseptica MTCC 6837.
The test system of test [9] is Shigella boydii MTCC 11947.
Test [10] deals with Stenotrophomonas maltophilia MTCC 1890.
Test [11] has as its system Pseudomonas aeruginosa MTCC 3542.
Test [12] has as its system Salmonella enterica subsp. enterica serovar Typhimurium ATCC 14028.
Test [13] concerns Shigella flexneri MTCC 1457.
Test [14] concerns Pluralibacter gergoviae MTCC 3826.
In test [15] the test system is Klebsiella oxytoca MTCC 2275.
Test [16] relates to Haemophilus influenzae MTCC 621.
For test [17], the system named is Corynebacterium glutamicum MTCC 2679.
The subject of test [18] is Klebsiella aerogenes MTCC 111.
Test [19] deals with Klebsiella pneumoniae MTCC 7407.
Test [20] deals with Alcaligenes faecalis MTCC 1937.
The test system of test [21] is Staphylococcus aureus MTCC 3160.
Test [22] has as its system Proteus mirabilis MTCC 3158.
Test [23] concerns Citrobacter koseri MTCC 1657.
In test [24] the test system is Enterococcus faecalis MTCC 439.
For test [25], the system named is Escherichia coli K12 MG1655.
In test [26] the test system is Salmonella enterica subsp. enterica serovar Typhimurium C77-31.
Test [27] deals with Staphylococcus aureus ATCC 29213.
Test [28] has as its system Staphylococcus epidermidis ATCC 12228.
Test [29] deals with Staphylococcus aureus ATCC 25923.
Test [30] concerns Salmonella enterica subsp. enterica serovar Pullorum C79-13.
The test system of test [31] is Salmonella enterica subsp. enterica serovar Typhi CMCC 50071.
The subject of test [32] is Escherichia coli UB1005.
Test [33] has as its system Pseudomonas aeruginosa K799.
Test [34] deals with Enterococcus faecalis ATCC 29212.
Test [35] has as its system Salmonella enterica subsp. enterica serovar Typhimurium ATCC 14028s.
Test [36] has as its system Staphylococcus epidermidis.
For test [37], the system named is Listeria monocytogenes.

With `CC(C)C[C@H](NC(=O)[C@H](CCCCN)NC(=O)CNC(=O)[C@H](C)NC(=O)[C@H](CCCN=C(N)N)NC(=O)[C@H](CO)NC(=O)[C@@H](N)CCC(=O)O)C(=O)N[C@@H](C)C(=O)N[C@@H](C)C(=O)N[C@@H](CCCCN)C(=O)N[C@@H](C)C(=O)N[C@@H](C)C(=O)N[C@@H](Cc1ccccc1)C(=O)N[C@@H](CCCCN)C(=O)N[C@@H](C)C(=O)N[C@@H](C)C(=O)N[C@@H](CCCCN)C(=O)N[C@@H](CCCN=C(N)N)C(=O)O` [ESRAGKLAAKAAFKAAKR], the MIC in test [1], in test [2], in test [3], in test [4], in test [5] and in test [6] was at least 68.3 µM throughout. In addition, the MIC in test [7] is at least 68.3 µM; in [8] it was at least 68.3 µM; in test [9], at least 68.3 µM; in test [10], at least 68.3 µM; in test [11], at least 68.3 µM; in test [12], over 68.3 µM. In addition, the MIC in test [13], in [14], in test [15], in test [16], in test [17] and in [18] was at least 68.3 µM each time. For the same compound, the MIC in test [19], in test [20], in [21], in test [22], in test [23] and in test [24] was at least 68.3 µM in each case. This compound had an MIC in test [25] of at least 68.3 µM.
Consider `CC(C)C[C@H](NC(=O)[C@H](Cc1cnc[nH]1)NC(=O)[C@H](CCCN=C(N)N)NC(=O)[C@H](CC(C)C)NC(=O)[C@H](CCCN=C(N)N)NC(=O)[C@H](CCC(N)=O)NC(=O)[C@@H](NC(=O)[C@H](C)NC(=O)[C@H](CCCN=C(N)N)NC(=O)[C@H](CCCN=C(N)N)NC(=O)[C@H](C)NC(=O)[C@@H](NC(=O)[C@H](CCCN=C(N)N)NC(=O)[C@H](Cc1c[nH]c2ccccc12)NC(=O)[C@@H](N)CCC(=O)O)C(C)C)C(C)C)C(=O)N[C@@H](C)C(=O)N[C@@H](CCCN=C(N)N)C(=O)N[C@@H](CCCN=C(N)N)C(=O)N[C@@H](Cc1ccc(O)cc1)C(=O)N[C@@H](Cc1cnc[nH]1)C(=O)O` [EWRVARRAVQRLRHLARRYH], for which the MIC in [1] was 24.3 µM (≈ 64 µg/mL); in [2], 6.08 µM (≈ 16 µg/mL); in [3], at least 48.7 µM; in [4], at least 48.7 µM; in [5], 6.08 µM (≈ 16 µg/mL); in [6], 6.08 µM (≈ 16 µg/mL). Further, the MIC in [7] is 6.08 µM (≈ 16 µg/mL); in test [8], 0.76 µM (≈ 2 µg/mL); in [9] it was 3.04 µM (≈ 8 µg/mL); in test [10] it was 24.3 µM (≈ 64 µg/mL); in test [11] it was at least 48.7 µM; in test [12] it was 6.08 µM (≈ 16 µg/mL). In addition, the MIC in test [13] is 0.38 µM (≈ 1 µg/mL); in test [14], at least 48.7 µM; in test [15], 3.04 µM (≈ 8 µg/mL); in test [16] it was 3.04 µM (≈ 8 µg/mL); in [17], 0.38 µM (≈ 1 µg/mL); in [18], at least 48.7 µM. Also, the MIC was at least 48.7 µM in [19]; at least 48.7 µM in test [20]; at least 48.7 µM in test [21]; at least 48.7 µM in test [22]; 6.08 µM (≈ 16 µg/mL) in test [23]; at least 48.7 µM in test [24]. The compound also registered an MIC in [25] of 6.08 µM (≈ 16 µg/mL).
As to `NC(=O)CC[C@H](NC(=O)[C@H](Cc1c[nH]c2ccccc12)NC(=O)[C@H](CCCN=C(N)N)NC(=O)[C@H](CCCN=C(N)N)NC(=O)[C@H](Cc1c[nH]c2ccccc12)NC(=O)[C@@H](N)Cc1ccccc1)C(=O)N[C@@H](Cc1c[nH]c2ccccc12)C(=O)N[C@@H](CCCN=C(N)N)C(=O)N[C@@H](CCCN=C(N)N)C(=O)N[C@@H](CCCN=C(N)N)C(=O)N[C@@H](Cc1c[nH]c2ccccc12)C(=O)N[C@@H](Cc1ccccc1)C(N)=O` [FWRRWQWRRRWF], the MIC is 16 µM (≈ 31.4 µg/mL) in test [26]; over 128 µM in [27]; 8 µM (≈ 15.7 µg/mL) in test [28]; 16 µM (≈ 31.4 µg/mL) in test [29]; 8 µM (≈ 15.7 µg/mL) in [30]; at least 128 µM in [31]. The MIC came to 128 µM (≈ 252 µg/mL) in test [12] and 16 µM (≈ 31.4 µg/mL) in [32].
Take `CC[C@H](C)[C@H](NC(=O)[C@H](CCCN=C(N)N)NC(=O)[C@H](CO)NC(=O)[C@H](CC(C)C)NC(=O)[C@@H](N)CCCN=C(N)N)C(=O)N[C@H](C(=O)N[C@H](C(=O)N[C@H](C(=O)N[C@@H](CCCN=C(N)N)C(=O)N[C@H](C(=O)N[C@@H](CO)C(=O)N[C@@H](CCCN=C(N)N)C(N)=O)C(C)C)[C@@H](C)CC)C(C)C)C(C)C` [RLSRIVVIRVSR]: the MIC in test [33] amounted to 11 µM (≈ 16 µg/mL); in [29] it was 2.75 µM (≈ 4 µg/mL); in [34], 2.75 µM (≈ 4 µg/mL); in test [35], 22 µM (≈ 32 µg/mL); in [36] it was 0.688 µM (≈ 0.999 µg/mL); in test [37], 0.172 µM (≈ 0.25 µg/mL). The same compound gave an MIC in test [32] of 1.38 µM (≈ 2 µg/mL).

For the origin of these results see DBAASP.
